In PubChem BioAssay AID2060895 (Molecular Pharmacology Branch, DTP, NCI, 2025):

System: PDC 899932-113-R3-J6 complex spheroid viability
Test: Anticancer human tumor 899932-113-R3-J6-PDC patient-derived melanoma cell line growth inhibition [RAS]
Details: for IC50: curve of first compound; for viability, T/C: stronger effect = lower value
In short: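 Agents were tested in combination matrices in half-log decrements from a top concentration at or near clinical Cmax (10 microM if undetermined). Targets were multi-cell spheroids of tumour lines plus HUVEC and MSC stromal cells.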
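Throughout, for viability, T/C: spheroids exposed to agents for seven days before readout; 100% = DMSO vehicle control wells.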

With `NC1c2ccccc2OC12CCN(c1cnc3c(N4CCCc5ncccc54)n[nH]c3n1)CC2` (configuration not stated) + C=CC(=O)N1CCN(c2nc(OCC3CCCN3C)nc3c(F)c(-c4nc(N)cc(C)c4C(F)(F)F)c(Cl)cc23)C(C)C1 as the compound, how does the IC50 (second compound 0.00316 µM) read?
The IC50 was greater than 10 µM.

And the IC50 (second compound 0.01 µM)?
Its IC50 is greater than 10 µM.

What about the IC50 (second compound 0.0316 µM) of the same compound?
Its IC50 is greater than 10 µM.

What about the IC50 (second compound 0.1 µM) of the same compound?
The IC50 was greater than 10 µM.

What about the IC50 (second compound 0.316 µM) of the same compound?
The IC50 was greater than 10 µM.

What about the IC50 (second compound 1 µM) of the same compound?
The IC50 was greater than 10 µM.

And the viability, T/C (second compound 0.00316 µM, first compound 0.0316 µM)?
Its viability, T/C is 113%.

What about the viability, T/C (second compound 0.00316 µM, first compound 0.1 µM) of the same compound?
The viability, T/C was 107%.

What about the viability, T/C (second compound 0.00316 µM, first compound 0.316 µM) of the same compound?
Its viability, T/C is 114%.

And the viability, T/C (second compound 0.00316 µM, first compound 1 µM)?
The viability, T/C was 113%.

What about the viability, T/C (second compound 0.00316 µM, first compound 3.16 µM) of the same compound?
Its viability, T/C is 108%.

And the viability, T/C (second compound 0.00316 µM, first compound 10 µM)?
The viability, T/C was 89.9%.

What about the viability, T/C (second compound 0.01 µM, first compound 0.0316 µM) of the same compound?
The viability, T/C was 108%.

And the viability, T/C (second compound 0.01 µM, first compound 0.1 µM)?
The viability, T/C was 104%.

What about the viability, T/C (second compound 0.01 µM, first compound 0.316 µM) of the same compound?
Its viability, T/C is 115%.

What about the viability, T/C (second compound 0.01 µM, first compound 1 µM) of the same compound?
Its viability, T/C is 102%.

What about the viability, T/C (second compound 0.01 µM, first compound 3.16 µM) of the same compound?
Its viability, T/C is 115%.

And the viability, T/C (second compound 0.01 µM, first compound 10 µM)?
The viability, T/C was 106%.

And the viability, T/C (second compound 0.0316 µM, first compound 0.0316 µM)?
The viability, T/C was 116%.

And the viability, T/C (second compound 0.0316 µM, first compound 0.1 µM)?
The viability, T/C was 107%.

And the viability, T/C (second compound 0.0316 µM, first compound 0.316 µM)?
Its viability, T/C is 115%.

And the viability, T/C (second compound 0.0316 µM, first compound 1 µM)?
The viability, T/C was 125%.

And the viability, T/C (second compound 0.0316 µM, first compound 3.16 µM)?
The viability, T/C was 121%.

What about the viability, T/C (second compound 0.0316 µM, first compound 10 µM) of the same compound?
Its viability, T/C is 99.7%.

And the viability, T/C (second compound 0.1 µM, first compound 0.0316 µM)?
The viability, T/C was 107%.

What about the viability, T/C (second compound 0.1 µM, first compound 0.1 µM) of the same compound?
The viability, T/C was 106%.

And the viability, T/C (second compound 0.1 µM, first compound 0.316 µM)?
Its viability, T/C is 114%.

And the viability, T/C (second compound 0.1 µM, first compound 1 µM)?
The viability, T/C was 114%.

And the viability, T/C (second compound 0.1 µM, first compound 3.16 µM)?
Its viability, T/C is 102%.

And the viability, T/C (second compound 0.1 µM, first compound 10 µM)?
Its viability, T/C is 104%.

And the viability, T/C (second compound 0.316 µM, first compound 0.0316 µM)?
Its viability, T/C is 110%.

And the viability, T/C (second compound 0.316 µM, first compound 0.1 µM)?
The viability, T/C was 116%.

And the viability, T/C (second compound 0.316 µM, first compound 0.316 µM)?
The viability, T/C was 112%.

What about the viability, T/C (second compound 0.316 µM, first compound 1 µM) of the same compound?
Its viability, T/C is 111%.

What about the viability, T/C (second compound 0.316 µM, first compound 3.16 µM) of the same compound?
The viability, T/C was 115%.

And the viability, T/C (second compound 0.316 µM, first compound 10 µM)?
Its viability, T/C is 97.1%.

And the viability, T/C (second compound 1 µM, first compound 0.0316 µM)?
The viability, T/C was 114%.

And the viability, T/C (second compound 1 µM, first compound 0.1 µM)?
The viability, T/C was 105%.

What about the viability, T/C (second compound 1 µM, first compound 0.316 µM) of the same compound?
The viability, T/C was 119%.

What about the viability, T/C (second compound 1 µM, first compound 1 µM) of the same compound?
Its viability, T/C is 113%.

And the viability, T/C (second compound 1 µM, first compound 3.16 µM)?
The viability, T/C was 112%.

What about the viability, T/C (second compound 1 µM, first compound 10 µM) of the same compound?
The viability, T/C was 86.1%.
